In US20170348337A1, “MULTIFUNCTIONAL MEMBRANE-ACTIVE AMINOGLYCOSIDE-PEPTIDE CONJUGATES” (priority 2014, published 2017):
In brackets after ≈: the same amount, converted by molar mass. Read-outs that look alike come from different tables or passages of the source. Residues, ends and D or L forms follow the SMILES beside them. No end group written: not given here. Tobramycin = aminoglycoside, conjugated at the peptide N-terminus; Neomycin = aminoglycoside, conjugated at the peptide N-terminus

Key:
E. coli persisters = assay: E. coli persister killing assay, pentobra plus adjuvant; type: cell-based; conditions: 10 mM arabinose; 1.5 hours
Procedure: Bacterial persisters were prepared essentially as described above, by growing an E. coli culture for 18-24 hours, at which point 100 μg/ml ampicillin was added for a 4-hour incubation to kill non-persisters. The cells were washed with M9 salts without carbon source, and subsequently diluted with M9 salts to an appropriate cell count for the killing assay. Approximately 10^6 E. coli cells per well were placed in a total volume of 100 μl in a 96-well plate on a shaker at 37° C. for 1.5 hours in the presence of each the following, respectively: Pentobra, Pentobra-plus-glucose (as adjuvant), tobramycin, tobramycin-plus-glucose (as adjuvant). A concentration series was used with 50, 25, 12.5, 6.25 and 0 μM for pentobra or tobramycin, and correspondingly 10, 5, 2.5, 1.25 and 0 mM for glucose. Incubation, dilution, and plating for colony assay determination were as described above. In a separate experiment, approximately 10^6 E. coli cells per well were placed in a total volume of 100 μl in a 96-well plate at 37° C. for 1.5 hours in the presence of each the following, respectively: pentobra, pentobra-plus-10 mM arabinose (as adjuvant), tobramycin, tobramycin-plus-10 mM arabinose (as adjuvant).
Persister cells were isolated and experiments to test for bactericidal activity were performed as described in Example 7 above.

[1] = test system: Vancomycin-Sensitive Enterococci (VSE); assay: organism not typed; type: cell-based
Description: (§1) Pentobra was screened against a broad panel of microbial pathogens, including strains of E. coli, MRSA, Klebsiella (Kleb), Acinetobacter (AcB), Vancomycin-Sensitive Enterococci (VSE) and Vancomycin-Resistant Enterococci (VRE), and specifically including E. faecalis samples. […] The experimenter reported the minimum inhibitory concentration (MIC) in mass units per unit volume (μg/mL) for each compound, and MIC data were converted into molar concentrations (μM) due to the large difference between the molecular weight of tobramycin (467.5 g/mol) and Pentobra (2277 g/mol).

sebocytes = assay: cell viability assay (MTT section, CellTiter-GLO); type: cell-based, human; conditions: 26 μM; over 72 hr
Procedure: (§2) Cell proliferation experiments were performed in 96-well plates (5 replicates). 26 μM of Pentobra and Tobramycin treatments were initiated at 24 hours post-seeding for 3 days. Stocks and dilutions of PLX4032/vemurafenib (Plexxikon) and AZD6244/selumetenib (Selleck Chemicals) were made in dimethyl sulfoxide (DMSO). Three cell types (PBMCs, Keratinocytes and Sebocytes cell lines) were tested. Cells were quantified using CellTiter-GLO Luminescence (Promega) following the manufacturer's recommendations.

keratinocytes = assay: cell viability assay (MTT section, CellTiter-GLO); type: cell-based, human; conditions: 26 μM; over 72 hr
Procedure: as §2

[2] = test system: Peripheral Blood Mononuclear Cells (PBMCs); assay: cell viability assay (MTT section, CellTiter-GLO); type: cell-based, human; conditions: 26 μM; over 72 hr
Procedure: as §2

E. coli [3] = assay: antimicrobial activity (MIC) of P-L-A conjugates; type: cell-based
S. aureus = assay: antimicrobial activity (MIC) of P-L-A conjugates; type: cell-based
NIH/3T3 cells [4] = assay: CellTox Green cytotoxicity assay; type: cell-based, mouse; conditions: concentrations up to 100 μM; 8 h incubation
Procedure: CellTox™ Green assay. The cytotoxicity of Pentobra was investigated on NIH/3T3 cells (ATCC) using CellTox™ Green assay (Promega, United States of America). Cells were seeded in a 96 well plate at a concentration of 2.5×10^3 cells/well. 100 μL of DMEM media were added to each well containing 0.2% CellTox green dye and varying concentrations of Pentobra, CPP or tobramycin and incubated for 8 and 24 h before the plate was read using an excitation wavelength of 485 nm and emission filter of 535 nm on a microplate reader (Beckman Coulter, DTX 880 Multimode Detector). A lysis solution, known to be toxic to the cells, was used as a positive control which represented the maximum dead cell signal obtainable from non-proliferating cells. The untreated cell population represented the maximal negative control signal obtainable at the end of an exposure period. The fluorescence values were normalized (from positive and negative controls) and converted to corresponding viability values.

NIH/3T3 cells [5] = assay: LIVE/DEAD viability/cytotoxicity assay; conditions: 100 μM; 8 h
Procedure: The effect of Pentobra on the plasma membrane integrity was investigated on NIH/3T3 cells using the Live/Dead® Viability/Cytotoxicity Kit (Molecular Probes). Briefly, 50,000 cells/well were incubated in a 24-well plate and treated with 100 μM of tobramycin, Pen peptide or Pentobra for 8 h at 37° C. Then, the cells were stained with 100 μL of the live/Dead assay reagents (2 μM calcein and 4 μM ethidium homodimer), and incubated at 37° C. for 20 min. The labeled cells were counted using a Zeiss Axiovert Observer Z1 inverted fluorescent microscope (at least 160 cells were counted for each treatment).
In addition, the effect of Pentobra on the cell membrane integrity was evaluated using the LIVE/DEAD® cell viability assay. This assay simultaneously determined intracellular esterase activity and plasma membrane integrity using two distinct dyes: a) calcein, a membrane permeable polyanionic dye that must be hydrolyzed by intracellular esterases (dead cells lack active esterases) to produce a green fluorescence and b) ethidium homodimer, a membrane impermeable red fluorescent dye that can only penetrate cells with compromised membranes.

P. aeruginosa = assay: antimicrobial activity (MIC) of P-L-A conjugates; type: cell-based; conditions: for MIC: stationary
[6] = test system: Vancomycin-Resistant Enterococci (VRE); assay: microbe, parasite or virus in culture; type: cell-based
Description: as §1

Acinetobacter (AcB) = assay: microbe, parasite or virus in culture; type: cell-based; conditions: isolate AcB, PM1434
Description: as §1

Klebsiella (Kleb) = assay: microbe, parasite or virus in culture; type: cell-based; conditions: isolate Kleb, W6921701-1
Description: as §1

MRSA = assay: microbe, parasite or virus in culture; type: cell-based; conditions: isolate MRSA
Description: as §1

E. coli [7] = assay: microbe, parasite or virus in culture; type: cell-based
Description: as §1

[8] = cited from earlier work

Molecule: O=C[C@@H](O)[C@H](O)[C@H](O)CO [Arabinose, arabinose]
- effect on killing potency of pentobra (E. coli persisters): enhanced pentobra, but to a lesser extent

Molecule: CC[C@H](C)[C@H](NC(=O)[C@H](CCCCN)NC(=O)[C@@H](NC(=O)[C@H](CCC(N)=O)NC(=O)[C@H](CCCNC(=N)N)NC(=O)CCC(=O)OC[C@H]1O[C@H](O[C@@H]2[C@@H](O)[C@H](O[C@H]3O[C@H](CN)[C@@H](O)C[C@H]3N)[C@@H](N)C[C@H]2N)[C@H](O)[C@@H](N)[C@@H]1O)[C@@H](C)CC)C(=O)N[C@@H](Cc1c[nH]c2ccccc12)C(=O)N[C@@H](Cc1ccccc1)C(=O)N[C@@H](CCC(N)=O)C(=O)N[C@@H](CC(N)=O)C(=O)N[C@@H](CCCNC(=N)N)C(=O)N[C@@H](CCCNC(=N)N)C(=O)N[C@@H](Cc1c[nH]c2ccccc12)C(=O)O [Pentobra] (HELM PEPTIDE1{[NC[C@H]1O[C@H](O[C@H]2[C@H](O)[C@@H](O[C@H]3O[C@H](COC(=O)CCC(=O)[*:2])[C@@H](O)[C@H](N)[C@H]3O)[C@H](N)C[C@@H]2N)[C@H](N)C[C@@H]1O].R.Q.I.K.I.W.F.Q.N.R.R.W}$$$$V2.0)
- MIC ([1]; isolate S4895552, VSE, LZD-R): 14 µM (≈ 31.9 µg/mL)
- MIC ([1]; isolate W7171143,VSE): 56 µM (≈ 128 µg/mL)
- MIC ([1]; isolate W7214342,VSE): 28 µM (≈ 63.9 µg/mL)
- MIC ([1]; isolate X4540299, VSE): 14 µM (≈ 31.9 µg/mL)
- viability (sebocytes): did not affect the viability
- viability (keratinocytes): did not affect the viability
- viability [2]: did not affect the viability
- MIC (μM) E. coli (mid-log) (E. coli [3]): 6.25 μM
- MIC (μM) S. aureus (mid-log) (S. aureus): 25 μM
- cytotoxic effect (NIH/3T3 cells [4]): did not show any cytotoxic effect
- cytotoxicity (percentage of red stained cells) (NIH/3T3 cells [5]): no statistical difference in cytotoxicity
- plasma membrane integrity of eukaryotic cells (NIH/3T3 cells [5]): did not induce any loss of plasma membrane integrity
- MIC (μM) P. aeruginosa (mid-log) (P. aeruginosa): 6.25-12.5 μM
- MIC (P. aeruginosa): 25 µM (≈ 57 µg/mL)
- MIC ([6]; isolate 24670, VRE^? (second entry)): 14 µM (≈ 31.9 µg/mL)
- MIC ([6]; isolate F6541102, VRE): >56 µM
- MIC ([6]; isolate H6926031, VRE*): 14 µM (≈ 31.9 µg/mL)
- MIC ([6]; isolate M6865034, VRE): 14 µM (≈ 31.9 µg/mL)
- MIC ([6]; isolate S3899836, VRE^? (second entry)): 14 µM (≈ 31.9 µg/mL)
- MIC ([6]; isolate VRE, 24670): 14 µM (≈ 31.9 µg/mL)
- MIC ([6]; isolate VRE, S3899836): 14 µM (≈ 31.9 µg/mL)
- MIC (Acinetobacter (AcB)): 7 µM (≈ 16 µg/mL)
- MIC (Klebsiella (Kleb)): 7 µM (≈ 16 µg/mL)
- MIC (MRSA; F2806774): 56 µM (≈ 128 µg/mL)
- MIC (MRSA; H2867813): >56 µM
- MIC (E. coli [7]; isolate ATCC 25922, Ecoli (second entry)): 4 µM (≈ 9.12 µg/mL)
- MIC (E. coli [7]; isolate ATCC Ecoli, 25922 (first entry)): 2 µM (≈ 4.56 µg/mL)
- MIC (E. coli [7]; isolate Ecoli,YD461): 7 µM (≈ 16 µg/mL)

Molecule: NCC[C@H](O)C(=O)N[C@@H]1C[C@H](N)[C@@H](O[C@H]2O[C@H](CN)[C@@H](O)[C@H](O)[C@H]2O)[C@H](O)[C@H]1O[C@H]1O[C@H](CO)[C@@H](O)[C@H](N)[C@H]1O [amikacin]
- octanol→water partition coefficient Log P ([8]; aminoglycosides): −3.34

Molecule: NC[C@H]1O[C@H](O[C@H]2[C@H](O)[C@@H](O[C@H]3O[C@H](CO)[C@@H](O)[C@H](N)[C@H]3O)[C@H](N)C[C@@H]2N)[C@H](O)[C@@H](O)[C@@H]1O [kanamycin]
- octanol→water partition coefficient Log P ([8]; aminoglycosides): −4.55

Molecule: NC[C@@H]1O[C@H](O[C@H]2[C@@H](O)[C@H](O[C@@H]3[C@@H](O)[C@H](N)C[C@H](N)[C@H]3O[C@H]3O[C@H](CO)[C@@H](O)[C@H](O)[C@H]3N)O[C@@H]2CO)[C@H](N)[C@@H](O)[C@@H]1O [paromomycin]
- octanol→water partition coefficient Log P ([8]; aminoglycosides): −3.27

Molecule: [H]/N=C(/N)N[C@H]1[C@H](O)[C@@H](O)[C@H](O[C@@H]2O[C@@H](C)[C@](O)(C=O)[C@H]2O[C@@H]2O[C@@H](CO)[C@H](O)[C@@H](O)[C@@H]2NC)[C@@H](N/C(N)=N\[H])[C@@H]1O [streptomycin]
- octanol→water partition coefficient Log P ([8]; aminoglycosides): −2.53

Molecule: OC[C@H]1O[C@@](CO)(O[C@H]2O[C@H](CO)[C@@H](O)[C@H](O)[C@H]2O)[C@@H](O)[C@@H]1O [sucrose]
- octanol→water partition coefficient Log P ([8]; sugars, Mazzobre et. al. 2005): −3.30

Molecule: OC[C@H]1O[C@H](O[C@H]2O[C@H](CO)[C@@H](O)[C@H](O)[C@H]2O)[C@H](O)[C@@H](O)[C@@H]1O [trehalose]
- octanol→water partition coefficient Log P ([8]; sugars, Mazzobre et. al. 2005): −3.77

Molecule: Amphi Pentobra: Tobramycin-GWIRNQFRKIWQR [SEQ ID NO: 81], N-terminal conjugation
- MIC (μM) E. coli (mid-log) (E. coli [3]): 3.12 μM
- MIC (μM) P. aeruginosa (mid-log) (P. aeruginosa): 12.5 μM

Molecule: Neo13: Neomycin-GFHGVKNLARRIL [SEQ ID NO: 109], N-terminal conjugation
- MIC (μM) S. aureus (mid-log) (S. aureus): 12.5 μM
- MIC (μM) P. aeruginosa (mid-log) (P. aeruginosa): 12.5 μM
- MIC (P. aeruginosa): 50 µM

Molecule: NeoGP11: Neomycin-GPWWFKWPRLI [SEQ ID NO: 123], N-terminal conjugation
- MIC (μM) P. aeruginosa (mid-log) (P. aeruginosa): 12.5 μM
- MIC (P. aeruginosa): 50 µM

Molecule: RQIKIWFQNRRW [Pen peptide]
- cytotoxicity (percentage of red stained cells) (NIH/3T3 cells [5]): no statistical difference in cytotoxicity

Molecule: Reverse Pentobra: Tobramycin-GWRRNQFWIKIQR [SEQ ID NO: 95], N-terminal conjugation
- MIC (μM) E. coli (mid-log) (E. coli [3]): 3.12 μM
- MIC (μM) P. aeruginosa (mid-log) (P. aeruginosa): 12.5 μM

Molecule: TobrGW12: Tobramycin-GWRNQIRKGWQR [SEQ ID NO: 135], N-terminal conjugation
- MIC (μM) P. aeruginosa (mid-log) (P. aeruginosa): 6.25 μM
- MIC (P. aeruginosa): 12.5 µM

Molecule: gentamycin
- octanol→water partition coefficient Log P ([8]; aminoglycosides): −2.47

Molecule: neomycin
- octanol→water partition coefficient Log P ([8]; aminoglycosides): −3.65
- MIC (μM) S. aureus (mid-log) (S. aureus): 1.56 μM
- MIC (P. aeruginosa): 12.5 µM
